This is an account of results in ChEMBL document CHEMBL1151134, “Anti-AIDS agents, 1. Isolation and characterization of four new tetragalloylquinic acids as a new class of HIV reverse transcriptase inhibitors from tannic acid” (J Nat Prod, 1989).

For data set [1], the system named is Human immunodeficiency virus. The data set is described as follows: Inhibition of HIV reverse transcriptase assessed as incorporation of [3H]dTMP at 0.6 uM.
Data set [2] relates to H9. The data set is described as follows: Cytotoxicity against human H9 cells at 1.25 uM. Type of data set: cell-based. Particulars: h9, 1.25 µM.
Data set [3] deals with H9. The data set is described as follows: Cytotoxicity against human H9 cells at 6.25 uM. Type of data set: cell-based. Particulars: h9, 6.25 µM.
Data set [4] relates to Human immunodeficiency virus. Nature of the data set: Inhibition of HIV reverse transcriptase assessed as incorporation of [3H]dTMP at 10 uM.
The test system of data set [5] is Human immunodeficiency virus 1. The data set is described as follows: Antiviral activity against HIV1 3B replication in human H9 cells at 1.5 uM after 3 days by p24 antigen capture assay relative to control. In kind it is functional. Particulars: Human immunodeficiency virus 1, 3B, H9, 72 h.
Data set [6] relates to Human immunodeficiency virus 1. Nature of the data set: Antiviral activity against HIV1 3B replication in human H9 cells at 30.8 uM after 3 days by p24 antigen capture assay relative to control. In kind it is functional. Particulars: Human immunodeficiency virus 1, 3B, H9, 72 h.
For data set [7], the system named is Human immunodeficiency virus 1. Nature of the data set: Antiviral activity against HIV1 3B replication in human H9 cells at 7.7 uM after 3 days by p24 antigen capture assay relative to control. Type of data set: functional. Particulars: Human immunodeficiency virus 1, 3B, H9, 72 h.
For data set [8], the system named is Human immunodeficiency virus. The data set is described as follows: Inhibition of HIV reverse transcriptase assessed as incorporation of [3H]dTMP at 100 uM.
A short description of data set [9]: Cytotoxicity against human H9 cells at 25 uM. Type of data set: cell-based. Particulars: read-out: INH.
The subject of data set [10] is Human immunodeficiency virus. The data set is described as follows: Inhibition of HIV reverse transcriptase assessed as incorporation of [3H]dTMP at 30 uM.
Data set [11] relates to Human immunodeficiency virus. Nature of the data set: Inhibition of HIV reverse transcriptase assessed as incorporation of [3H]dTMP at 100 nM.
Data set [12] deals with Human immunodeficiency virus. The data set is described as follows: Inhibition of HIV reverse transcriptase assessed as incorporation of [3H]dTMP at 100 ug/ml.
Data set [13] deals with Human immunodeficiency virus 1. Nature of the data set: Antiviral activity against HIV1 3B replication in human H9 cells at 25 uM after 3 days by p24 antigen capture assay relative to control. Type of data set: functional. Particulars: Human immunodeficiency virus 1, 3B, H9, 72 h.
Data set [14] relates to Human immunodeficiency virus 1. The data set is described as follows: Antiviral activity against HIV1 3B replication in human H9 cells at 6.25 uM after 3 days by p24 antigen capture assay relative to control. Particulars: Human immunodeficiency virus 1, 3B, H9, 72 h. Type of data set: functional.
The subject of data set [15] is Human immunodeficiency virus 1. The data set is described as follows: Antiviral activity against HIV1 3B replication in human H9 cells at 1.25 uM after 3 days by p24 antigen capture assay relative to control. In kind it is functional. Particulars: Human immunodeficiency virus 1, 3B, H9, 72 h.
For data set [16], the target named is T1, DNA polymerase subunit gamma-1 (Homo sapiens) (UniProt P54098).
T1 sequence (whole entry): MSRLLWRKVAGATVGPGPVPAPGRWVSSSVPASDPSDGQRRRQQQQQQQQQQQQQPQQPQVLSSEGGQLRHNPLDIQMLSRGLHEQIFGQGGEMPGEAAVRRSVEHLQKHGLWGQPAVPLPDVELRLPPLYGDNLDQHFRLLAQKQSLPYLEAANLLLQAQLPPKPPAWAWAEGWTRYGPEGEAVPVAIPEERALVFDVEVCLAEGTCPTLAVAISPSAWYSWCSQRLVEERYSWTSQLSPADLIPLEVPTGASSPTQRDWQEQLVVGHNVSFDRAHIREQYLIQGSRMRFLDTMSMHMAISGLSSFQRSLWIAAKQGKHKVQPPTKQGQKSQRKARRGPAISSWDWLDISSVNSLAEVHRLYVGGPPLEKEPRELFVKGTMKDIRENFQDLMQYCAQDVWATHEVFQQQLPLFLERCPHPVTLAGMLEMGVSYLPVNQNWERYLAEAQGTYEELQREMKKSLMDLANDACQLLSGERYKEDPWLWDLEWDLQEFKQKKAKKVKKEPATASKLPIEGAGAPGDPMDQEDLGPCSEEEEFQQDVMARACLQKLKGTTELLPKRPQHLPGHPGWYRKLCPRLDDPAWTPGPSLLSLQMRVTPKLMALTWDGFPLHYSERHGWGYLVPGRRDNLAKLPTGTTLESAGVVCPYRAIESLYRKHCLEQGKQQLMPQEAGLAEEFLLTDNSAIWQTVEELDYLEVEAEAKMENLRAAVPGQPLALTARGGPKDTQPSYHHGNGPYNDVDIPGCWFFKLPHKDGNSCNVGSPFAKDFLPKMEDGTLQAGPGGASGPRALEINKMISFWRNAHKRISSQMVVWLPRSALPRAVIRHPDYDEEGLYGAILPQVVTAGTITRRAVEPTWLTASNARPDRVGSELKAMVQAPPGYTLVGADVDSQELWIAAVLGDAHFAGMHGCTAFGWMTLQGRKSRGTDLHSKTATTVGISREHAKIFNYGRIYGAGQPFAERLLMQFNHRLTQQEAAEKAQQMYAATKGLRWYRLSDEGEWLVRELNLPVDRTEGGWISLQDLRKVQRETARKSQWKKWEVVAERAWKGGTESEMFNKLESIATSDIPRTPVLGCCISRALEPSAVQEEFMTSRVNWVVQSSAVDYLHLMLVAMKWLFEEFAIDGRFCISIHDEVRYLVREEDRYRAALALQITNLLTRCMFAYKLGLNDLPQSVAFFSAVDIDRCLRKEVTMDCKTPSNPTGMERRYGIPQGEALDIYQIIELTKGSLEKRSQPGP
Nature of the data set: Inhibition of human DNA polymerase gamma.

The target in data set [17] is DNA polymerase beta (Homo sapiens) (UniProt P06746). The data set is described as follows: Inhibition of human DNA polymerase beta.
Data set [18] has as its target T2, DNA polymerase alpha catalytic subunit (Homo sapiens) (UniProt P09884).
T2 sequence (whole entry): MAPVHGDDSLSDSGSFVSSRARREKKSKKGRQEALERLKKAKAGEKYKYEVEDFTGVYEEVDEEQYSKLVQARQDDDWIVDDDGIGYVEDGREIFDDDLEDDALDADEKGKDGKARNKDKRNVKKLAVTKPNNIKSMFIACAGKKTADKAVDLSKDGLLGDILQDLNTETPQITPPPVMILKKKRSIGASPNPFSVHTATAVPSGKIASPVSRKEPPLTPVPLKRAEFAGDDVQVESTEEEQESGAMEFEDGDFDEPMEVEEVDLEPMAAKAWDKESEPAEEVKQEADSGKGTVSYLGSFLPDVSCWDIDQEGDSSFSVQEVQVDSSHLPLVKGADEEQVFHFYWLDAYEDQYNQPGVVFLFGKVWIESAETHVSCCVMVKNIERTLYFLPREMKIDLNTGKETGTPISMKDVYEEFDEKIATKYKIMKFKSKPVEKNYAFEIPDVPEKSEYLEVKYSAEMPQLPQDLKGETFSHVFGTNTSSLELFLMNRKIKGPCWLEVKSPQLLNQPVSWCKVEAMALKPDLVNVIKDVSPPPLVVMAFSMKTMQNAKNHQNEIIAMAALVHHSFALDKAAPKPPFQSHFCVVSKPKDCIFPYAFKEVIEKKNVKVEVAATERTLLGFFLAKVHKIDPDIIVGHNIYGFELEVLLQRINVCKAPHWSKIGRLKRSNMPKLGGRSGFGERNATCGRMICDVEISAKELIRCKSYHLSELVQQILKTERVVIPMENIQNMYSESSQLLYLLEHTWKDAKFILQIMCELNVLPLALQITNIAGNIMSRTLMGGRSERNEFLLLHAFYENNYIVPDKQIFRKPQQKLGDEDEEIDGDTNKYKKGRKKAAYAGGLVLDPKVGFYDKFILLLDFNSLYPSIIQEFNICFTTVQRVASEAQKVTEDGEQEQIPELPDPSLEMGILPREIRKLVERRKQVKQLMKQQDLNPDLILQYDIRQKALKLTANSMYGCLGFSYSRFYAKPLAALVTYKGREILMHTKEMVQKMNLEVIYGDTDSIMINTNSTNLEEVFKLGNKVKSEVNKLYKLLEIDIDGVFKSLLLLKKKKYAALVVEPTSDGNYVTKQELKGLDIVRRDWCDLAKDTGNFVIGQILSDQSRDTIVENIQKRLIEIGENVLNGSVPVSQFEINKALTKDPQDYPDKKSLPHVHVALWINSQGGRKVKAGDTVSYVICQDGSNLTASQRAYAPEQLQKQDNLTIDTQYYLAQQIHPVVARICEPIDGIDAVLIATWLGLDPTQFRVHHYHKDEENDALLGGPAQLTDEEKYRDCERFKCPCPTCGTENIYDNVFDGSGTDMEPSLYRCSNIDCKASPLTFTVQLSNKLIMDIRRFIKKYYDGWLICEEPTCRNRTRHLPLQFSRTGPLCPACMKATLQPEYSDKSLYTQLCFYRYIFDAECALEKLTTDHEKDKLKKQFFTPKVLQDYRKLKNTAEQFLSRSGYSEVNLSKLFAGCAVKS
Nature of the data set: Inhibition of human DNA polymerase alpha.

Data set [19] relates to Human immunodeficiency virus. The data set is described as follows: Inhibition of HIV reverse transcriptase.

Molecules are shown by their SMILES.

Broadly, the inhibition is the change of the read-out against control, counted positive when it falls. Consider `O=C(O)P(=O)(O)O`, for which the inhibition in data set [1] worked out at 63%.
For the compound `O=C(O[C@@H]1C[C@](O)(C(=O)O)C[C@@H](OC(=O)c2cc(O)c(O)c(O)c2)[C@H]1OC(=O)c1cc(O)c(O)c(O)c1)c1cc(O)c(O)c(O)c1`, the Activity entry in data set [2] and in [3] was “Non-toxic” each time. The inhibition was 39% in data set [4], 58% in [8] and 48% in [10]. Further, at 1.5 µM the inhibition in [5] was 26%. The compound further displayed an inhibition at 30.8 µM in [6] of 70%. Moreover, testing at 7.7 µM in data set [7] gave an inhibition of 59%. Further, the cytotoxicity at 25 µM in data set [9] is 14%.
Consider `Cc1cn([C@H]2C[C@H](N=[N+]=[N-])[C@@H](COP(=O)(O)OP(=O)(O)OP(=O)(O)O)O2)c(=O)[nH]c1=O`, for which, in data set [11], the inhibition was 64%.
On to `O=C(OC[C@H]1O[C@@H](OC(=O)c2cc(O)c(O)c(OC(=O)c3cc(O)c(O)c(O)c3)c2)[C@H](OC(=O)c2cc(O)c(O)c(OC(=O)c3cc(O)c(O)c(O)c3)c2)[C@@H](OC(=O)c2cc(O)c(O)c(OC(=O)c3cc(O)c(O)c(O)c3)c2)[C@@H]1OC(=O)c1cc(O)c(O)c(OC(=O)c2cc(O)c(O)c(O)c2)c1)c1cc(O)c(O)c(OC(=O)c2cc(O)c(O)c(O)c2)c1`, for which the inhibition in data set [12] was 74%.
With `O=C(Oc1c(O)cc(C(=O)O[C@@H]2C[C@](O)(C(=O)O)C[C@@H](OC(=O)c3cc(O)c(O)c(O)c3)[C@H]2OC(=O)c2cc(O)c(O)c(O)c2)cc1O)c1cc(O)c(O)c(O)c1`, the Activity entry in [2] and in data set [3] was “Non-toxic” in each case. Also, the inhibition at 25 µM in data set [13] amounted to 61%. Also, at 6.25 µM the inhibition in [14] was 44%. Besides, the inhibition in data set [4] was determined as 50%; in data set [8] it was 84%; in data set [10] it was 63%. For the same compound, the inhibition at 1.25 µM in data set [15] amounted to 13%. For the same compound, the cytotoxicity at 25 µM in data set [9] was 25%.
For `O=C(O[C@@H]1C[C@](OC(=O)c2cc(O)c(O)c(O)c2)(C(=O)O)C[C@@H](OC(=O)c2cc(O)c(O)c(O)c2)[C@H]1OC(=O)c1cc(O)c(O)c(O)c1)c1cc(O)c(O)c(O)c1`, the Activity entry in data set [2] and in data set [3] was “Non-toxic” throughout. In [13], this compound gave an inhibition at 25 µM of 66%. This compound also displayed an inhibition at 6.25 µM in [14] of 52%. The inhibition in data set [4] was 36%; in data set [8], 94%; in [10], 84%. The compound further came in with an inhibition at 1.25 µM in data set [15] of 15%. In addition, in data set [9], the cytotoxicity at 25 µM came to 25%.
Turning to `O=C(Oc1c(O)cc(C(=O)O[C@@H]2C[C@@](O)(C(=O)O)C[C@@H](OC(=O)c3cc(O)c(O)c(O)c3)[C@@H]2OC(=O)c2cc(O)c(O)c(O)c2)cc1O)c1cc(O)c(O)c(O)c1`, the ID50 in data set [16] was 2.5 µM; in data set [17], 21 µM; in [18], 0.065 µM; in data set [19], 29 µM. The Activity entry in data set [2] and in data set [3] was “Non-toxic” in each case. Moreover, in data set [13], at 25 µM the inhibition was 63%. The compound further displayed an inhibition at 6.25 µM in data set [14] of 50%. In addition, the values for the inhibition in data set [4], in [8] and in data set [10] were 55%, 89% and 70%, respectively. Further, in data set [15], the inhibition at 1.25 µM is 28%. The cytotoxicity at 25 µM in [9] was determined as 0%.
With `O=C(Oc1c(O)cc(C(=O)O[C@H]2[C@H](OC(=O)c3cc(O)c(O)c(O)c3)C[C@](O)(C(=O)O)C[C@H]2OC(=O)c2cc(O)c(O)c(O)c2)cc1O)c1cc(O)c(O)c(O)c1`, the Activity result in data set [2] and in data set [3] was “Non-toxic” each time. Moreover, testing at 25 µM in data set [13] gave an inhibition of 71%. The same compound registered an inhibition at 6.25 µM in data set [14] of 57%. In addition, the inhibition stood at 53% in data set [4], 90% in data set [8] and 73% in data set [10]. The same compound displayed an inhibition at 1.25 µM in data set [15] of 34%. The cytotoxicity at 25 µM in data set [9] stood at 14%.
